Data taken from US11207320B2, “Compositions and methods for cancer expressing PDE3A or SLFN12” (The Broad Institute, Inc., priority 2015, dated 2021).

How the values were obtained:
[1] = biological target: T1, PDE3A and SLFN12 (Homo sapiens, UniProt Q14432); experiment: Validation of DNMDP-induced PDE3A protein interactions using immunoprecipitation and immunoblotting; type: cell-based; conditions: for PDE3A and SLFN12 complex formation: FIG. 20, affinity reagents, immunoblot; for complex formation of V5-tagged SIRT7 and SLFN12 with PDE3A: HeLa, 10 μM, 4 hours, coimmunoprecipitation (FIG. 19)
T1 construct: Endogenous PDE3A was immunoprecipitated; host or cells: HeLa
T1 sequence (Q14432 whole entry): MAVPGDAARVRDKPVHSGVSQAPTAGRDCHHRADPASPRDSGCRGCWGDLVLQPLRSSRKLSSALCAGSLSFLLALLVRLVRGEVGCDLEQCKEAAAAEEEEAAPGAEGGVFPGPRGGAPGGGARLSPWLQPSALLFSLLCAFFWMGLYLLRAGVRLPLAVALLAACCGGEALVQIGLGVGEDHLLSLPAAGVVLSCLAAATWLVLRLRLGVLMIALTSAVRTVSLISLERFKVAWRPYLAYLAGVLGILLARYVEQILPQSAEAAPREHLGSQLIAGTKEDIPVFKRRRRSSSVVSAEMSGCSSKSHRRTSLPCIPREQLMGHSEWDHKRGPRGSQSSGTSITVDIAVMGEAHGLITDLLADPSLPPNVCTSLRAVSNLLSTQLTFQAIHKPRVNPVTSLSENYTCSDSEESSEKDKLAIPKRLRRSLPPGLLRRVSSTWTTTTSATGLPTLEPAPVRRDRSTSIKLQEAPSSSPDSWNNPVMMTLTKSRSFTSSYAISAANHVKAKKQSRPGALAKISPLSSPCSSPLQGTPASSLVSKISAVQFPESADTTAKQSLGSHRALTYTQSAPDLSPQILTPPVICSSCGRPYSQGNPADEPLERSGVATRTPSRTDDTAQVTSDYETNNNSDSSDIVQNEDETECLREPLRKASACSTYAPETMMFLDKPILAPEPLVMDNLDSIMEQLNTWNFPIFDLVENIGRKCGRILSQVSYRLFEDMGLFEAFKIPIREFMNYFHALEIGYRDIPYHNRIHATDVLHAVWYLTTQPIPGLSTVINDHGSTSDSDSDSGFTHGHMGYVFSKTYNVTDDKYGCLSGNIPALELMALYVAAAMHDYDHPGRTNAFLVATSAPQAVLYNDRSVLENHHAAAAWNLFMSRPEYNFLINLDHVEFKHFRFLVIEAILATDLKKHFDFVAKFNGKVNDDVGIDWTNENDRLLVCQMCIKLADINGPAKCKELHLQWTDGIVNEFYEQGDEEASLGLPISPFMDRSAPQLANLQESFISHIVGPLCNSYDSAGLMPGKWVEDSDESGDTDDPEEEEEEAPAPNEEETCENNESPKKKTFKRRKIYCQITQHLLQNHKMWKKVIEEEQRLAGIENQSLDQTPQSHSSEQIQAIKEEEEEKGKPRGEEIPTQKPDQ
T1 sequence (Q8IYM2 whole entry partner): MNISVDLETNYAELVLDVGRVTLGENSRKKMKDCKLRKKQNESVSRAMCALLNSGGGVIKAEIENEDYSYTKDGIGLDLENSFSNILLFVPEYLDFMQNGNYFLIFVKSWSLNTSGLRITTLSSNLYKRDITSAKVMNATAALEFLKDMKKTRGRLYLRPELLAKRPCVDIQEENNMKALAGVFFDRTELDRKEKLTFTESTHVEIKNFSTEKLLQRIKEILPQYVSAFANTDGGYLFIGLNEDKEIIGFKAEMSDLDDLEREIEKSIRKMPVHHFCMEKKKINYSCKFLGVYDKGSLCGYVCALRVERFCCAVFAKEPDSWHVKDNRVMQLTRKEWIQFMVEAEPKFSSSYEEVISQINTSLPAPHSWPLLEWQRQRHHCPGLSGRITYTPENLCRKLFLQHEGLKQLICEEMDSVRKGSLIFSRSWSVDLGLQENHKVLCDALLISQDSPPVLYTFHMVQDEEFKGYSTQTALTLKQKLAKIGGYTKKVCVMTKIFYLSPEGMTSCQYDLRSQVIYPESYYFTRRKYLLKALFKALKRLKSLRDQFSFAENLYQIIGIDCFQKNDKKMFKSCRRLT
Method: FIG. 19 is an immunoblot showing that DNMDP induces interaction between PDE3A and SIRT7 and SLFN12 in HeLa cells. HeLa cells were transfected with indicated plasmids and treated with indicated compounds with a final concentration of 10 μM for four hours. Endogenous PDE3A was immunoprecipitated and immunoblotted for V5 to identify novel interaction with SIRT7 and SLFN12 (upper two panels). Immunoprecipitate input was immunoblotted for PDE3A and V5 (lower two panels). V5-SLFN12 was undetectable in whole cell lysate.
FIG. 20 is an immunoblot showing confirmation of mass spectrometric results herein using affinity reagents.
HeLa cells were transfected with ORF overexpression constructs expressing V5-tagged SIRT7, V5-tagged SLFN12, or V5-tagged GFP. ORF expression constructs were obtained from the TRC (clone IDs: TRCN0000468231, TRCN0000476272, ccsbBroad304_99997). At 72 hours post transfection, cells were treated with 10 μM DNMDP or trequinsin for 4 hours followed by lysis using the ModRipa lysis buffer and immunoprecipitation of PDE3A. For each condition, 2 mg total protein lysate was incubated with 1 μg of anti-PDE3A antibody at 4° C. overnight, after which 7.5 μl each of Protein A- and Protein G-Dynabeads (Life Technologies 10001D and 10003D) were added and incubated for another 1 hour. Beads were washed and bound proteins were eluted with 30 μl of LDS PAGE gel loading buffer. Input (˜60 μg total protein lysate) and IP products were resolved on 4-12% Tris-Glycine PAGE gels and immunoblotted with an anti-V5 antibody (Life Technologies R96205, 1:5000), the Bethyl anti-PDE3A antibody (1:1000), and secondary antibodies from LiCOR Biosciences (Cat.#926-32210 and 926068021, each at 1:10,000). Blots were washed and imaged using a LiCOR Odyssey infrared imager.

[2] = biological target: PDE3A (Homo sapiens, UniProt Q14432); experiment: Immunoprecipitation of PDE3A in HeLa cells with iTRAQ/MS proteomics; parameters: Immunoprecipitation of endogenous PDE3A in HeLa cells; endogenous in cells; host or cells: HeLa; conditions: 10 μM, four hours
Sequence of PDE3A (Q14432 whole entry): as the sequence (Q14432 whole entry) above
Description: The dependence of 6-(4-(diethylamino)-3-nitrophenyl)-5-methyl-4,5-dihydropyridazin-3(2H)-one (DNMDP) cytotoxicity on phosphodiesterase 3A (PDE3A) protein abundance indicated a possible mechanism similar to that recently observed for lenalidomide, which acts by a neomorphic or hypermorphic mechanism by stabilizing an interaction between cereblon and IKAROS Family Zinc Finger 1 (IKZF1) and IKZF3 (Krönke et al., Science 343, 301-305, 2014; Lu et al., Science 343, 305-309, 2014). […] The protein complexes in which PDE3A resides were characterized under normal conditions, and it was examined how these complexes change when PDE3A is bound to DNMDP or the non-cytotoxic PDE3 inhibitor trequinsin. PDE3A and interacting proteins from Hela cells were immunoprecipitated in the presence of DNMDP and trequinsin followed by labeling with isobaric stable isotope tags for relative abundance and quantitation by mass spectrometry (iTRAQ/MS, FIG. 13A). […]
Desalted peptides were labeled with isobaric tags for relative and absolute quantification (iTRAQ)-reagents according to the manufacturer's instructions (AB Sciex, Foster City, Calif.). […]
Reconstituted peptides were separated on an online nanoflow EASY-NLC™ 1000 UHPLC system (Thermo Fisher Scientific) and analyzed on a benchtop Orbitrap Q EXACTIVE™ mass spectrometer (Thermo Fisher Scientific). […]

Row | SMILES | PDE3A and SLFN12 complex formation [1] | complex formation of V5-tagged SIRT7 and SLFN12 with PDE3A [1] | enrichment of SIRT7 and SLFN12 in PDE3A immunoprecipitates [2]
1 | CCN(CC)c1ccc(C2=NNC(=O)CC2C)cc1[N+](=O)[O-] (stereo not drawn) [DNMDP, 6-(4-(diethylamino)-3-nitrophenyl)-5-methyl-4,5-dihydropyridazin-3(2H)-one] | induced | enhanced | specifically enriched
2 | COc1cc2c(cc1OC)-c1c/c(=N\c3c(C)cc(C)cc3C)n(C)c(=O)n1CC2 [trequinsin, 9,10-dimethoxy-3-methyl-2-(2,4,6-trimethylphenyl)imino-6,7-dihydropyrimido[6,1-a]isoquinolin-4-one] | not | not | not observed
